pIC50: −log10 of the molar value.
tested on: neutrophils activated by fMLP; experiment: superoxide production from neutrophils activated by fMLP; type: cell-based; conditions: Neutrophil; concentration giving 50% inhibition of fMLP-induced superoxide production compared to control response; human peripheral blood neutrophils, cytochalasin B priming, adenosine deaminase present, cytochrome C reduction readout
Procedure: This is evaluated by determining the compound profile in an assay where superoxide production was measured from neutrophils activated by fMLP. Neutrophils were isolated from human peripheral blood using dextran sedimentation followed by centrifugation through Ficoll-Hypaque solution. Any contaminating erythrocytes in the granulocyte pellet were removed by lysis with ice-cold distilled water. Superoxide production from the neutrophils was induced by fMLP in the presence of a priming concentration of cytochalasin B. Adenosine deaminase was included in the assay to remove any endogenously produced adenosine that might suppress superoxide production. The effect of the compound on the fMLP-induced response was monitored colorometrically from the reduction of cytochrome C within the assay buffer. The potency of the compounds was assessed by the concentration giving 50% inhibition (IC50) compared to the control response to fMLP.

**Q.** CCNC(=O)[C@H]1O[C@@H](n2cnc3c(NCC(c4ccccc4)c4ccccc4)nc(C(=O)NCCNC(=O)NCCN4CCCCC4)nc32)[C@H](O)[C@@H]1O [Example 1, 6-[(2,2-Diphenylethyl)amino]-9-{(2R,3R,4S,5S)-5-[(ethylamino)carbonyl]-3,4-dihydroxytetrahydro-2-furanyl}-N-{2-[({[2-(1-piperidinyl)ethyl]amino}carbonyl)amino]ethyl}-9H-purine-2-carboxamide] was tested. Which pIC50 did it give?
**A.** The pIC50 was > 7.00.

**Q.** CCNC(=O)[C@H]1O[C@@H](n2cnc3c(NCC(c4ccccc4)c4ccccc4)nc(C(=O)NCCNC(=O)NCCN(C(C)C)C(C)C)nc32)[C@H](O)[C@@H]1O [Example 2] was tested. Which pIC50 did it give?
**A.** The pIC50 was > 7.00.

**Q.** How did the pIC50 turn out when O=C(NCCNC(=O)c1nc(NCC(c2ccccc2)c2ccccc2)c2ncn([C@@H]3O[C@H](CO)[C@@H](O)[C@H]3O)c2n1)NCCN1CCCCC1 [Example 3, 9-[(2R,3R,4S,5R)-3,4-Dihydroxy-5-(hydroxymethyl)tetrahydro-2-furanyl]-6-[(2,2-diphenylethyl)amino]-N-{2-[({[2-(1-piperidinyl)ethyl]amino}carbonyl)amino]ethyl}-9H-purine-2-carboxamide] was run?
**A.** The pIC50 was > 7.00.

**Q.** CC(C)N(CCNC(=O)NCCNC(=O)c1nc(NCC(c2ccccc2)c2ccccc2)c2ncn([C@@H]3O[C@H](CO)[C@@H](O)[C@H]3O)c2n1)C(C)C [Example 4] was tested. Which pIC50 did it give?
**A.** Its pIC50 is > 7.00.

**Q.** How did the pIC50 turn out when CCNC(=O)[C@H]1O[C@@H](n2cnc3c(NCC(c4ccccc4)c4ccccc4)nc(C(=O)NCCNC(=O)NCCN4CCC(C(C)C)CC4)nc32)[C@H](O)[C@@H]1O [Example 5, 6-[(2,2-Diphenylethyl)amino]-9-{(2R,3R,4S,5S)-5-[(ethylamino)carbonyl]-3,4-dihydroxytetrahydro-2-furanyl}-N-{2-[({[2-(4-isopropyl-1-piperidinyl)ethyl]amino}carbonyl)amino]ethyl}-9H-purine-2-carboxamide] was run?
**A.** The pIC50 was > 7.00.

**Q.** With CCNC(=O)[C@H]1O[C@@H](n2cnc3c(NCC(c4ccccc4)c4ccccc4)nc(C(=O)NCCNC(=O)NCCN(C(C)C)C4CCCC4)nc32)[C@H](O)[C@@H]1O [Example 6, N-(2-{[({2-[Cycopentyl(isopropyl)amino]ethyl}amino)carbonyl]amino}ethyl)-6-[(2,2-diphenylethyl)amino]-9-{(2R,3R,4S,5S)-5-[(ethylamino)carbonyl]-3,4-dihydroxytetrahydro-2-furanyl}-9H-purine-2-carboxamide] as the compound, how does the pIC50 read?
**A.** Its pIC50 is > 7.00.

**Q.** CCNC(=O)[C@H]1O[C@@H](n2cnc3c(NCC(c4ccccc4)c4ccccc4)nc(C(=O)NCCNC(=O)NCCN(C(C)C)C4CCCCC4)nc32)[C@H](O)[C@@H]1O [Example 7, N-(2-{[({2-[Cyclohexyl(isopropyl)amino]ethyl}amino)carbonyl]amino}ethyl)-6-[(2,2-diphenylethyl)amino]-9-{(2R,3R,4S,5S)-5-[(ethylamino)carbonyl]-3,4-dihydroxytetrahydro-2-furanyl}-9H-purine-2carboxamide] was tested. Which pIC50 did it give?
**A.** The pIC50 was > 7.00.

**Q.** CCNC(=O)[C@H]1O[C@@H](n2cnc3c(NCC(c4ccccc4)c4ccccc4)nc(C(=O)NCCNC(=O)NC4CCN(c5ccccn5)CC4)nc32)[C@H](O)[C@@H]1O [Example 8, 6-[(2,2-Diphenylethyl)amino]-9-{(2R,3R,4S,5S)-5-[(ethylamino)carbonyl]-3,4-dihydroxytetrahydro-2-furanyl}-N-{2-[({[1-(2-pyridinyl)-4-piperidinyl]amino}carbonyl)amino]ethyl}-9H-purine-2-carboxamide] was tested. Which pIC50 did it give?
**A.** The pIC50 was > 7.00.

**Q.** With CCCCN(CCCC)CCNC(=O)NCCNC(=O)c1nc(NCC(c2ccccc2)c2ccccc2)c2ncn([C@@H]3O[C@H](C(=O)NCC)[C@@H](O)[C@H]3O)c2n1 [Example 9] as the compound, how does the pIC50 read?
**A.** Its pIC50 is > 7.00.

**Q.** With CCNC(=O)[C@H]1O[C@@H](n2cnc3c(NCC(c4ccccc4)c4ccccc4)nc(C(=O)NCCNC(=O)NC4CCN(Cc5ccccc5)CC4)nc32)[C@H](O)[C@@H]1O [Example 10] as the compound, how does the pIC50 read?
**A.** The pIC50 was > 7.00.

**Q.** How did the pIC50 turn out when CCNC(=O)[C@H]1O[C@@H](n2cnc3c(NCC(c4ccccc4)c4ccccc4)nc(C(=O)NCCNC(=O)NCCN(Cc4ccccc4)C(C)C)nc32)[C@H](O)[C@@H]1O [Example 11] was run?
**A.** Its pIC50 is > 7.00.

**Q.** How did the pIC50 turn out when CCNC(=O)[C@H]1O[C@@H](n2cnc3c(NCC(c4ccccc4)c4ccccc4)nc(C(=O)NCCNC(=O)NCC4CCN(Cc5ccccc5)CC4)nc32)[C@H](O)[C@@H]1O [Example 12] was run?
**A.** The pIC50 was > 7.00.

**Q.** With CCNC(=O)[C@H]1O[C@@H](n2cnc3c(NCC(c4ccccc4)c4ccccc4)nc(C(=O)NCCNC(=O)NCc4ccccc4)nc32)[C@H](O)[C@@H]1O [Example 13] as the compound, how does the pIC50 read?
**A.** The pIC50 was > 7.00.

**Q.** CCNC(=O)[C@H]1O[C@@H](n2cnc3c(NCC(c4ccccc4)c4ccccc4)nc(C(=O)NCCNC(=O)NCCc4ccccc4)nc32)[C@H](O)[C@@H]1O [Example 14] was tested. Which pIC50 did it give?
**A.** Its pIC50 is > 7.00.

**Q.** How did the pIC50 turn out when CCNC(=O)[C@H]1O[C@@H](n2cnc3c(NCC(c4ccccc4)c4ccccc4)nc(C(=O)NCCNC(=O)NC4CCCCC4)nc32)[C@H](O)[C@@H]1O [Example 15] was run?
**A.** Its pIC50 is > 7.00.

**Q.** With CCNC(=O)[C@H]1O[C@@H](n2cnc3c(NCC(c4ccccc4)c4ccccc4)nc(C(=O)NCCNC(=O)NCCN4CCc5ccccc5C4)nc32)[C@H](O)[C@@H]1O [Example 16] as the compound, how does the pIC50 read?
**A.** The pIC50 was > 7.00.

**Q.** With CCNC(=O)[C@H]1O[C@@H](n2cnc3c(NCC(c4ccccc4)c4ccccc4)nc(C(=O)NCCCNC(=O)NCCN4CCCCC4)nc32)[C@H](O)[C@@H]1O [Example 18] as the compound, how does the pIC50 read?
**A.** The pIC50 was > 7.00.

**Q.** How did the pIC50 turn out when CCNC(=O)[C@H]1O[C@@H](n2cnc3c(NCC(c4ccccc4)c4ccccc4)nc(C(=O)NCCCNC(=O)NCCN(C(C)C)C(C)C)nc32)[C@H](O)[C@@H]1O [Example 19] was run?
**A.** Its pIC50 is > 7.00.

**Q.** With CCNC(=O)[C@H]1O[C@@H](n2cnc3c(NCC(c4ccccc4)c4ccccc4)nc(C(=O)N[C@H]4CC[C@H](NC(=O)NCCN5CCCCC5)CC4)nc32)[C@H](O)[C@@H]1O [Example 20] as the compound, how does the pIC50 read?
**A.** Its pIC50 is > 7.00.

**Q.** CCNC(=O)[C@H]1O[C@@H](n2cnc3c(NCC(c4ccccc4)c4ccccc4)nc(C(=O)N[C@H]4CC[C@H](NC(=O)NCCN(C(C)C)C(C)C)CC4)nc32)[C@H](O)[C@@H]1O [Example 21] was tested. Which pIC50 did it give?
**A.** Its pIC50 is > 7.00.

**Q.** How did the pIC50 turn out when CCNC(=O)[C@H]1O[C@@H](n2cnc3c(NCC(c4ccccc4)c4ccccc4)nc(C(=O)NC4CCN(C(=O)NCCN(C(C)C)C(C)C)CC4)nc32)[C@H](O)[C@@H]1O [Example 22] was run?
**A.** Its pIC50 is > 7.00.

**Q.** How did the pIC50 turn out when CCNC(=O)[C@H]1O[C@@H](n2cnc3c(NCC(c4ccccc4)c4ccccc4)nc(C(=O)N[C@@H]4CCN(C(=O)NCCN(C(C)C)C(C)C)C4)nc32)[C@H](O)[C@@H]1O [Example 23] was run?
**A.** The pIC50 was > 7.00.

**Q.** CCNC(=O)[C@H]1O[C@@H](n2cnc3c(NCC(c4ccccc4)c4ccccc4)nc(C(=O)N[C@@H]4CCN(C(=O)NCc5ccccc5)C4)nc32)[C@H](O)[C@@H]1O [Example 24] was tested. Which pIC50 did it give?
**A.** The pIC50 was > 7.00.

**Q.** With CCNC(=O)[C@H]1O[C@@H](n2cnc3c(NCC(c4ccccc4)c4ccccc4)nc(C(=O)N4CCC(NC(=O)NCc5ccccc5)CC4)nc32)[C@H](O)[C@@H]1O [Example 25] as the compound, how does the pIC50 read?
**A.** Its pIC50 is > 7.00.

**Q.** How did the pIC50 turn out when CCNC(=O)[C@H]1O[C@@H](n2cnc3c(NCC(c4ccccc4)c4ccccc4)nc(C(=O)N[C@@H]4CCN(C(=O)NCCc5ccccc5)C4)nc32)[C@H](O)[C@@H]1O [Example 26] was run?
**A.** Its pIC50 is > 7.00.

**Q.** How did the pIC50 turn out when CCNC(=O)[C@H]1O[C@@H](n2cnc3c(NCC(c4ccccc4)c4ccccc4)nc(C(=O)N[C@@H]4CCN(C(=O)NC5CCN(c6ccccn6)CC5)C4)nc32)[C@H](O)[C@@H]1O [Example 27] was run?
**A.** The pIC50 was > 7.00.

**Q.** With CCNC(=O)[C@H]1O[C@@H](n2cnc3c(NCC(c4ccccc4)c4ccccc4)nc(C(=O)N4CC[C@@H](NC(=O)NCCN(C(C)C)C(C)C)C4)nc32)[C@H](O)[C@@H]1O [Example 28] as the compound, how does the pIC50 read?
**A.** The pIC50 was > 7.00.

**Q.** How did the pIC50 turn out when CCNC(=O)[C@H]1O[C@@H](n2cnc3c(NCC(c4ccccc4)c4ccccc4)nc(C(=O)N4CC[C@H](NC(=O)NCCN(C(C)C)C(C)C)C4)nc32)[C@H](O)[C@@H]1O [Example 29] was run?
**A.** Its pIC50 is > 7.00.

**Q.** How did the pIC50 turn out when CCNC(=O)[C@H]1O[C@@H](n2cnc3c(NCC(c4cccc(C)c4)c4cccc(C)c4)nc(C(=O)NCCNC(=O)NCCN(C(C)C)C(C)C)nc32)[C@H](O)[C@@H]1O [Example 30, 6-{[2,2-Bis(3-methylphenyl)ethyl]amino}-N-{2-[({[2-(diisopropylamino)ethyl]amino}carbonyl)-amino]ethyl}-9-{(2R,3R,4S,5S)-5-[(ethylamino)carbonyl]-3,4-dihydroxytetrahydro-2-furanyl}-9H-purine-2-carboxamide] was run?
**A.** The pIC50 was > 7.00.

**Q.** How did the pIC50 turn out when CCNC(=O)[C@H]1O[C@@H](n2cnc3c(NCC(c4cccc(Cl)c4)c4cccc(Cl)c4)nc(C(=O)NCCNC(=O)NCCN(C(C)C)C(C)C)nc32)[C@H](O)[C@@H]1O [Example 31] was run?
**A.** Its pIC50 is > 7.00.

**Q.** How did the pIC50 turn out when CCNC(=O)[C@H]1O[C@@H](n2cnc3c(NCC(c4cccc(Cl)c4)c4cccc(Cl)c4)nc(C(=O)NCCNC(=O)NCCN4CCCCC4)nc32)[C@H](O)[C@@H]1O [Example 32, 6-{[2,2-Bis(3-chlorophenyl)ethyl]amino}-9-{(2R,3R,4S,5S)-5-[(ethylamino)carbonyl]-3,4-dihydroxytetrahydro-2-furanyl}-N-{2-[({[2-(1-piperidinyl)ethyl]amino}carbonyl)amino]ethyl}-9H-purine-2-carboxamide] was run?
**A.** The pIC50 was > 7.00.

**Q.** With CCNC(=O)[C@H]1O[C@@H](n2cnc3c(NCC(c4cccc(C)c4)c4cccc(C)c4)nc(C(=O)NCCNC(=O)NCCN4CCCCC4)nc32)[C@H](O)[C@@H]1O [Example 33] as the compound, how does the pIC50 read?
**A.** Its pIC50 is > 7.00.

**Q.** How did the pIC50 turn out when CCNC(=O)[C@H]1O[C@@H](n2cnc3c(NCC(c4ccccc4)c4ccccc4)nc(C(=O)NCCNC(=O)NCc4ccc(C(=O)O)cc4)nc32)[C@H](O)[C@@H]1O [Example 34, 4-[({[(2-{[(6-[(2,2-diphenylethyl)amino]-9-{(2R,3R,4S,5S)-5-[(ethylamino)carbonyl]-3,4-dihydroxytetrahydro-2-furanyl}-9H-purine-2-yl)carbonyl]amino}ethyl)amino]carbonyl}-amino)methyl]benzoic acid] was run?
**A.** Its pIC50 is > 7.00.

Reference: patent US6753322B2, “2-aminocarbonyl-9H-purine derivatives” (Pfizer Inc, priority 2000, dated 2004)
